Measurements reported in patent US20240307362A1 (priority 2019, published 2024).
Several values for one entry are separate records, joined by “and”; a condition that tells them apart may be missing. Equal entries are not always repeated. Where two headings read alike, the source gives them in different places.

What was measured:
human Bub1 = human Bub1 (Homo sapiens (Human), UniProt O43683); assay: Bub1 high ATP kinase assay (TR-FRET); format: biochemical
From the text: Bub1-inhibitory activity of compounds of the present invention at a high ATP concentration was quantified employing the Bub1 TR-FRET high ATP kinase assay as described in the following paragraphs.
N-terminally His6-tagged recombinant catalytic domain of human Bub1 (amino acids 704-1085), expressed in insect cells (Hi5) and purified by Ni-NTA affinity chromatography and subsequent size exclusion chromatography, was used as enzyme.

Ba/F3-EGFR-WT = assay: Ba/F3 cell survival assay, WT EGFR; format: cell-based
Description: (§1) 293T cells from ATCC were transfected with pBABEpuro expression constructs for WT EGFR or EGFR-insSVD and pCL-Eco packaging vector using Fugene-6 transfection reagent from Promega. Plates were incubated at 37° C. for 48 h. Retrovirus was harvested by filtering the media supernatant through a 0.45 μm filter.
(§2) Ba/F3 cells purchased from DSMZ were grown in RPMI+10% FBS+10 ng/mL IL-3 and infected with filtered retroviral supernatant at a 1:2 dilution. Polybrene was added to a concentration of 8 μg/mL, plates were spun for 90 min, and incubated overnight at 37° C. 2 μg/mL puromycin was added to the infected cells 24 h after infection and cells were continually grown in the presence of puromycin and 10 ng/mL IL-3. Following stably expressing Ba/F3 cell lines were generated: Ba/F3-EGFR-WT, Ba/F3-EGFR-insSVD, (Ba/F3-vector-control).
The cells ectopically expressing WT EGFR or EGFR-insSVD were plated with 10 ng/mL Millipore Culture grade EGF. The cells ectopically expressing pBABEpuro empty vector were plated with 10 ng/mL IL-3.
100 nL of compound was added to each well using a 100 nL pin head, and plates were incubated at 37° C. for 48 h.
(§3) Cell viability was measured by adding 20 μL of Cell Titer-Glo Luminescent Cell Viability Reagent diluted 1:3 in PBS. Plates were sealed with Perkin Elmer Top-Seal, inverted several times to mix, and immediately centrifuged at 1000 rpm for 2 min.

Ba/F3-EGFR-insSVD = assay: Ba/F3 cell survival assay, EGFR-insSVD; format: cell-based
Description: as §1, §2
For cell survival assays, Ba/F3 cells were grown to a density of 1-2 million cells per mL, spun down and resuspended in media without IL-3, and replated at a concentration 200,000-500,000 cells per mL. The cells ectopically expressing WT EGFR or EGFR-insSVD were plated with 10 ng/mL Millipore Culture grade EGF. The cells ectopically expressing pBABEpuro empty vector were plated with 10 ng/mL IL-3.
2 days later, cells were plated in 50 μL in a 384 well plate at a concentration of 4000 cells per well for cells assayed in the absence of IL-3 and 2000 cells per well for cells assayed in the presence of IL-3. 100 nL of compound was added to each well using a 100 nL pin head, and plates were incubated at 37° C. for 48 h.
as §3, with “min. Plates were incubated in low light conditions for 8-10 min and luminescence was measured.” for “min.”

[1] = read-out: Bub1 high ATP (2 mM) IC50, 2 mM ATP
[2] = read-out: BA/F3 (wild type) IC50, cell viability, Cell Titer-Glo, 48 h, with 10 ng/mL EGF, without IL-3
[3] = read-out: BA/F3 (insSVD) IC50, cell viability, Cell Titer-Glo, 48 h, with 10 ng/mL EGF, without IL-3
[4] = Mus musculus, BaF3, 48 h, read-out: BA/F3 (wild type) IC50, cell viability, Cell Titer-Glo, 48 h, with 10 ng/mL EGF, without IL-3
[5] = Mus musculus, BaF3, 48 h, read-out: BA/F3 (insSVD) IC50, cell viability, Cell Titer-Glo, 48 h, with 10 ng/mL EGF, without IL-3
[6] = Bub1 high ATP (2 mM) IC50, 2 mM ATP

Sequence of human Bub1 (O43683 704-1085): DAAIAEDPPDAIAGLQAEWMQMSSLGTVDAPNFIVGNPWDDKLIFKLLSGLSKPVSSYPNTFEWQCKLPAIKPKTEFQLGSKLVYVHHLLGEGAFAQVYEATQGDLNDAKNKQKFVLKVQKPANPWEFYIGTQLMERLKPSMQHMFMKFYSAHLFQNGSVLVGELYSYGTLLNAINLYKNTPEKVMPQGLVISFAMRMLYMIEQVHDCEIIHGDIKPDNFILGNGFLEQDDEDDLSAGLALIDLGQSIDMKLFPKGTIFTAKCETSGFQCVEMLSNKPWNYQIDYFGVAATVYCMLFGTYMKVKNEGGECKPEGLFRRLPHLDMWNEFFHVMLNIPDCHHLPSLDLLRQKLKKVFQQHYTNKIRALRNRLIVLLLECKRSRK

Compound | IC50 (human Bub1; [1]) | IC50 (Ba/F3-EGFR-WT; [2]) [nM] | IC50 (Ba/F3-EGFR-insSVD; [3]) [nM] | IC50 (Ba/F3-EGFR-WT; [4]) [nM] | IC50 (Ba/F3-EGFR-insSVD; [5]) [nM] | IC50 (human Bub1; [6]) [nM]
CC1(COc2cnccc2-c2[nH]c3c(c2Nc2cccc(Cl)c2OC(F)F)C(=O)NCC3)CCO1 (single isomer, unassigned) [Example 76, 3-[3-chloro-2-(difluoromethoxy)anilino]-2-(3-{[2-methyloxetan-2-yl]methoxy}pyridin-4-yl)-1,5,6,7-tetrahydro-4H-pyrrolo[3,2-c]pyridin-4-one] | > 20000 nM | 1880 | 291 |  |  | 
O=C1NCCc2[nH]c(-c3ccncc3OCC3COC3)c(Nc3cccc(Cl)c3OC(F)F)c21 [Example 17, 3-[3-chloro-2-(difluoromethoxy)anilino]-2-{3-[(oxetan-3-yl)methoxy]pyridin-4-yl}-1,5,6,7-tetrahydro-4H-pyrrolo[3,2-c]pyridin-4-one] | 7520 nM |  |  | 1740 | 177 | 
Cc1cccc(Nc2c(-c3ccncc3OCC3CCO3)[nH]c3c2C(=O)NCC3)c1Cl (single isomer, unassigned; (+)) [Example 38, (+)-3-(2-chloro-3-methylanilino)-2-{3-[(oxetan-2-yl)methoxy]pyridin-4-yl}-1,5,6,7-tetrahydro-4H-pyrrolo[3,2-c]pyridin-4-one] | > 20000 nM | 628 | 48.8 |  |  | 
COc1c(Br)cccc1Nc1c(-c2ccncc2OCC2CCO2)[nH]c2c1C(=O)NCC2 (single isomer, unassigned) [Example 35, 3-(3-bromo-2-methoxyanilino)-2-{3-[(oxetan-2-yl)methoxy]pyridin-4-yl}-1,5,6,7-tetrahydro-4H-pyrrolo[3,2-c]pyridin-4-one] |  | 1360 | 206 |  |  | 4970
COc1c(Nc2c(-c3ccncc3OCC3CCO3)[nH]c3c2C(=O)NCC3)ccc(F)c1Cl (racemic) [Example 13, 3-(3-chloro-4-fluoro-2-methoxyanilino)-2-{3-[(oxetan-2-yl)methoxy]pyridin-4-yl}-1,5,6,7-tetrahydro-4H-pyrrolo[3,2-c]pyridin-4-one] | > 20000 nM |  |  | 2300 | 348 | 
CC1(C)COC1COc1cnccc1-c1[nH]c2c(c1Nc1cccc(Cl)c1OC(F)F)C(=O)NCC2 (single isomer, unassigned) [Example 72, 3-[3-chloro-2-(difluoromethoxy)anilino]-2-(3-{[3,3-dimethyloxetan-2-yl]methoxy}pyridin-4-yl)-1,5,6,7-tetrahydro-4H-pyrrolo[3,2-c]pyridin-4-one] |  | 2740 | 436 |  |  | > 20000
COc1c(Cl)cc(F)cc1Nc1c(-c2ccncc2OCC2CCO2)[nH]c2c1C(=O)NCC2 (single isomer, unassigned) [Example 66, 3-(3-chloro-5-fluoro-2-methoxyanilino)-2-(3-{[oxetan-2-yl]methoxy}pyridin-4-yl)-1,5,6,7-tetrahydro-4H-pyrrolo[3,2-c]pyridin-4-one] |  | 1500 | 140 |  |  | > 20000
COc1c(Cl)cc(F)cc1Nc1c(-c2ccncc2OCC2CCO2)[nH]c2c1C(=O)NCC2 (single isomer, unassigned) [Example 67, 3-(3-chloro-5-fluoro-2-methoxyanilino)-2-(3-{[oxetan-2-yl]methoxy}pyridin-4-yl)-1,5,6,7-tetrahydro-4H-pyrrolo[3,2-c]pyridin-4-one] | > 20000 nM | 5680 |  |  |  | 
COc1c(F)cccc1Nc1c(-c2ccncc2OC[C@H]2CCO2)[nH]c2c1C(=O)NCC2 [Example 6, 3-(3-fluoro-2-methoxyanilino)-2-(3-{[(2R)-oxetan-2-yl]methoxy}pyridin-4-yl)-1,5,6,7-tetrahydro-4H-pyrrolo[3,2-c]pyridin-4-one] | > 13300 nM |  |  |  | 276 | 
Cc1c(Cl)cccc1Nc1c(-c2ccncc2OC[C@H]2CCO2)[nH]c2c1C(=O)NCC2 [Example 9, 3-(3-chloro-2-methylanilino)-2-(3-{[(2R)-oxetan-2-yl]methoxy}pyridin-4-yl)-1,5,6,7-tetrahydro-4H-pyrrolo[3,2-c]pyridin-4-one] | 1570 nM |  |  | 1200 | 269 | 
Cc1c(Cl)cc(F)cc1Nc1c(-c2ccncc2OCC2CCO2)[nH]c2c1C(=O)NCC2 (single isomer, unassigned) [Example 42, 3-(3-chloro-5-fluoro-2-methylanilino)-2-{3-[(oxetan-2-yl)methoxy]pyridin-4-yl}-1,5,6,7-tetrahydro-4H-pyrrolo[3,2-c]pyridin-4-one] |  | 553 | 72.5 |  |  | > 20000
Cc1c(Cl)cc(F)cc1Nc1c(-c2ccncc2OCC2CCO2)[nH]c2c1C(=O)NCC2 (single isomer, unassigned) [Example 41, 3-(3-chloro-5-fluoro-2-methylanilino)-2-{3-[(oxetan-2-yl)methoxy]pyridin-4-yl}-1,5,6,7-tetrahydro-4H-pyrrolo[3,2-c]pyridin-4-one] |  | 1780 | 346 |  |  | 6350
COc1c(Cl)cccc1Nc1c(-c2ccncc2OC[C@H]2CCO2)[nH]c2c1C(=O)NCC2 [Example 3, 3-(3-chloro-2-methoxyanilino)-2-(3-{[(2R)-oxetan-2-yl]methoxy}pyridin-4-yl)-1,5,6,7-tetrahydro-4H-pyrrolo[3,2-c]pyridin-4-one] | 4510 nM |  |  |  | 136 | 
COc1c(F)cccc1Nc1c(-c2ccncc2OCC2OCC2(C)C)[nH]c2c1C(=O)NCC2 (single isomer, unassigned; (-)) [Example 53, (−)-2-{3-[(3,3-dimethyloxetan-2-yl)methoxy]pyridin-4-yl}-3-(3-fluoro-2-methoxyanilino)-1,5,6,7-tetrahydro-4H-pyrrolo[3,2-c]pyridin-4-one] | > 20000 nM | 1130 |  |  |  | 
COc1c(Cl)cccc1Nc1c(-c2ccncc2OCC2CCO2)[nH]c2c1C(=O)NCC2 (stereo not drawn) [Example 1, 3-(3-chlor-2-methoxyanilino)-2-[3-(oxetan-2-ylmethoxy)pyridin-4-yl]-1,5,6,7-tetrahydro-4H-pyrrolo[3,2-c]pyridin-4-on] |  |  |  | 789 | 25.1 | 
COc1c(F)cccc1Nc1c(-c2ccncc2OCC2(C)CCO2)[nH]c2c1C(=O)NCC2 (single isomer, unassigned; (-)) [Example 20, (−)-3-(3-fluoro-2-methoxyanilino)-2-{3-[(2-methyloxetan-2-yl)methoxy]pyridin-4-yl}-1,5,6,7-tetrahydro-4H-pyrrolo[3,2-c]pyridin-4-one] | 11800 nM and > 20000 nM |  |  |  |  | 14500
CC1(COc2cnccc2-c2[nH]c3c(c2Nc2cccc(Cl)c2OC(F)F)C(=O)NCC3)CCO1 (single isomer, unassigned) [Example 75, 3-[3-chloro-2-(difluoromethoxy)anilino]-2-(3-{[2-methyloxetan-2-yl]methoxy}pyridin-4-yl)-1,5,6,7-tetrahydro-4H-pyrrolo[3,2-c]pyridin-4-one] |  |  |  |  | 305 | > 20000
CC1(C)COC1COc1cnccc1-c1[nH]c2c(c1Nc1cccc(Cl)c1OC(F)F)C(=O)NCC2 (racemic) [Example 71, 3-[3-chloro-2-(difluoromethoxy)anilino]-2-(3-{[3,3-dimethyloxetan-2-yl]methoxy}pyridin-4-yl)-1,5,6,7-tetrahydro-4H-pyrrolo[3,2-c]pyridin-4-one] | > 20000 nM |  |  |  | 122 | 
O=C1NCCc2[nH]c(-c3ccncc3OCC3CCO3)c(Nc3cccc4c3CCC4)c21 (stereo not drawn) [Example 36, 3-[(2,3-dihydro-1H-inden-4-yl)amino]-2-{3-[(oxetan-2-yl)methoxy]pyridin-4-yl}-1,5,6,7-tetrahydro-4H-pyrrolo[3,2-c]pyridin-4-one] | > 20000 nM |  |  |  | 377 | 
